We go through 4 compounds from patent publication US7803764B2, “Amphipathic glycopeptides” (The Arizona Board of Regents on Behalf of the University of …, priority 2004, dated 2010).

Data set [1] can be described thus: water solubility. The following applies: H2O.
Data set [2] is described as follows: helicity by circular dichroism. It is filed as physicochemical. The settings on record: for % α-helicity: CD, SDS micelles (30 mM), pH = 7.0, 18° C. The procedure:
Circular Dichroism. All of the circular dichroism experiments were carried out on Aviv Associates model 60DS using an Endcal Model RTE4DD water circulator as a temperature-control vehicle. The instrument was calibrated by using d-10-camphorsulphonic acid. The spectra were recorded between 200 and 250 nm by using the continuous mode with a 1.5 nm bandwidth, a three second response and a scan step of 0.5 nm in a cell with a path length of 0.1 cm. Three or five scans were accumulated and averaged for each spectrum. Glycopeptide stock solutions were prepared by weighing the required amount, using Cahn/Ventron Instruments Model 21 automatic analytical electrobalance, to make 1 mL of a 0.5-1.0 mM solution and the pH was adjusted to the desired value. Samples were prepared by diluting the stock solution to 70-80 μM. All observed spectra were baseline-subtracted and smoothed by adjacent average of 5 points using Microcal Origin Ver. 5.0 software (Microcal Software Inc, USA). The molar ellipticities were determined using the formula [θ]=[θ]obs·(MRW)/10·l·C, where [θ]obs observed ellipticity in millidegrees, MRW is the mean residue weight, l is the cell path length in centimeters and C is the glycopeptide concentration in mg/mL. The percent α-helicity was determined by using the formula % helix=[θ]n→π*/−40,000 (1−2.5/n)·100, where n represents the number of amide bonds (including the C-terminal amide) in the glycopeptide and [θ]n→π** is molar ellipticity of n→π* transition band at 222 nm.^55
Conformational Analysis by CD. Circular dichroism (CD) is a powerful and simple tool for identifying secondary structure in both peptides and proteins.^64 All the peptides were subjected to CD analysis in H2O, TFE-H2O mixtures, SDS micelles and phospholipid bicelles. In H2O, a negative band near 200 nm is observed that arises from the π→π* electronic transition and is typical of random coil peptides. […] This behavior is explained as nascent helices.^65 In these nascent helices, helix CD signals could be induced by the addition of TFE.^66 All the glycopeptides gave an increased helix CD signal in TFE. The percentage of helicity increases as TFE concentration increases, but reached a maximum at 30% TFE. The increase in helicity in TFE can be attributed to decreased competition by H2O for hydrogen bonding to the backbone amides. […] In the presence of SDS micelles and anionic bicelles, the band at 200 nm underwent a red shift (higher value) and an additional shoulder appears around 222 nm as a result of the n→π* transition. […] The negative maxima at 222 nm (n→π* transition band) is used to calculate the helical content of polypeptides and proteins. The accepted value for a peptide that is 100% helical is approximately −35,000. It was observed that changes in amplitude of the bands up to 30% depend on length of helix.^67 The amplitude increases as α-helical chain length increases. Therefore, one has to consider the importance of chain-length dependence of the α-helix CD in the quantitative treatment of helix content in proteins and polypeptides. The percentage of helicity is independent of SDS concentration and pH (data not shown). In the presence of zwitterionic bicelles all of the glycopeptides yielded CD spectra similar to that observed in H2O, but anionic bicelles forced them to become more helical. The intensities of the [θ]π→π* band and the [θ]n→π* band are expected to be almost equal for a perfect α-helical peptide. […] A modest blue shift and reduced intensity for the [θ]n→π* transition bands are observed for all the glycopeptides in TFE. […] The glycopeptides 9 (Pro/Glc) and 12 (Pro/Lactose), which differ only by the sugar moiety attached, adopt perfect helices in the presence of SDS micelles and in anionic bicelles. The disaccharide increased the percentage of helicity in all the solvents, relative to the monosaccharide. […] It is remarkable to note that a single amino acid mutation at position 6 produced profound changes in the CD spectra. […]
For orientation: CD spectra are sensitive to the conformation of chiral molecules.

A short description of data set [3]: in vivo antinociception after i.c.v. administration. The settings on record: i.c.v., mice, antinociception. Set-up: species or system mice.
Data set [4] can be described thus: helicity by NMR αCH chemical shift index. It is filed as physicochemical. The procedure: NMR Spectroscopy. All NMR spectra were recorded on a Bruker DRX600 600 MHz spectrometer. Glycopeptide concentration for the NMR experiments varied from 2-3 mM. The glycopeptides were prepared in TFE-water solution by dissolving the peptide in 0.6 ml solution of a premixed 30% TFE-water mixture. The micelle samples were prepared by dissolving the glycopeptide and 100 equivalent of perdeuterated SDS in 0.6 ml of H2O/D2O (9:1 ratio by volume). Bicelles were produced from deuterated phospholipids. The zwitterionic bicelles were made by mixing the short chain phospholipid dihexanoyl-sn-glycero-3-phosphatidylcholine-d22 (DHPC) and the long chain 1,2-dimyristoyl-sn-glycero-3-phosphatidylcholine-d54 (DMPC) in the molar ratio of 2:1 in H2O. The […] were prepared by substituting 10 mol % of 1,2-dimyristoyl-sn-glycero-3-phospho-1-glycerol-d54 (DMPG) for DMPC. The glycopeptide to bicelle ratio was 1:25. After the glycopeptide was added to the bicelle solution, the system was submitted to a series o f three freeze/thaw/slight vortex shaking cycles. The pH of the each sample was adjusted to 4.5 by using DCl or NaOD as necessary. TSP (3-(trimethylsilyl)-d4-propionic acid) was added as an internal standard. The experiments in F3CCD2OD/H2O mixtures were at 293 K and for experiments in micelles/bicelles were at 298 or 311 K. Two-dimensional double quantum filtered correlation (DQF-COSY), rotating-frame Overhauser enhancement^56 (ROESY), Nuclear Overhauser enhancement^57 (NOESY), and total correlation spectra^58 (TOCSY) were acquired using standard pulse sequences and processed using XWINNMR (Bruker Inc) and FELIX2000 (Accelrys Inc, San Diego, Calif.), Mixing times for TOCSY spectra were either 80 or 100 ms. Mixing times for ROESY spectra were 150 or 250 ms, and for NOESY spectra were 200 or 300 ms. All experiments were 750 increments in t1, 16/32/64 scans each, 1.5 s relaxation delay, size 2 or 4K, and the spectral processing was with shifted sine bell window multiplications in both dimensions.
αCH Chemical Shift Index. […] At this point there is no accepted random coil αCH values for glycosylated serine, CSI values for this position are uncertain. The conformational shift values for all solvents were obtained using the random coil values described by Wright and co-workers.^72 Although, these reference shifts were obtained at pH=5.0 at 4.2° C., they appear to be very insensitive to the conditions, as very small deviations (±0.04) were observed when random coil values are obtained at pH=7.0 at 35° C. by Wuthrich and co-workers.^68 The quantification of secondary structure based on αCH chemical shifts is neglected in the literature because various contributions cannot be strictly accounted for, such as electrostatic effects, ring current shifts, and other magnetic anisotropies. However, it is possible to make qualitative comparison of helical content between closely related (glyco)peptides. Since the 3rd generation glycopeptides differ by only one amino acid at position 6, the helical content was obtained based on the αCH chemical shift values (Table 3). The method described by Gierasch and co-workers^69a was used. First, the average conformational shift was calculated for each glycopeptide by adding all upfield shifts in the helical regions and dividing by the total number of peptide bonds. Then, to obtain the overall helical content for each glycopeptide, the average conformational shift was divided by 0.35 ppm, which was assigned for 100% helicity. Since, there are no random coil values available for β-Alanine and glycosylated serine residues, they were not included in the calculation. The helicogenic Aib residue lacks an α-proton, and there was no correction included in the calculation for the helicity provided by Aib residue. The helical content obtained by this method correlated with the helical content obtained by CD. […]

In data set [5] the target is δ opioid receptor (Homo sapiens, UniProt P41143). The data set is described as follows: opioid receptor binding, δ receptor.
The nature of data set [6]: blood-brain barrier uptake / penetration. The following applies: mice.
For data set [7], the target named is μ opioid receptor (Homo sapiens, UniProt P35372). The data set is described as follows: opioid receptor binding, μ receptor.

pIC50: −log10 of the molar value.

Sequence of δ opioid receptor (P41143 whole entry): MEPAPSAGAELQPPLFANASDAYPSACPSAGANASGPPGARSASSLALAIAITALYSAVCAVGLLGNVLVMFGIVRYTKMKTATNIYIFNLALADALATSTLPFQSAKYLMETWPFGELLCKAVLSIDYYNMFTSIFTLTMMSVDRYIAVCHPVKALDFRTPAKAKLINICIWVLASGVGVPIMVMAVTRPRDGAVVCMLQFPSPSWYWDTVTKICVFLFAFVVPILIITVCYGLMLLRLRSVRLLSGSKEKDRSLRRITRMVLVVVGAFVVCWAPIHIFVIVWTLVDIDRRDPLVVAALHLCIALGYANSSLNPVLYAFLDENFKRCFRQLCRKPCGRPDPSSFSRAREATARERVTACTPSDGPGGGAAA
Sequence of μ opioid receptor (P35372 whole entry): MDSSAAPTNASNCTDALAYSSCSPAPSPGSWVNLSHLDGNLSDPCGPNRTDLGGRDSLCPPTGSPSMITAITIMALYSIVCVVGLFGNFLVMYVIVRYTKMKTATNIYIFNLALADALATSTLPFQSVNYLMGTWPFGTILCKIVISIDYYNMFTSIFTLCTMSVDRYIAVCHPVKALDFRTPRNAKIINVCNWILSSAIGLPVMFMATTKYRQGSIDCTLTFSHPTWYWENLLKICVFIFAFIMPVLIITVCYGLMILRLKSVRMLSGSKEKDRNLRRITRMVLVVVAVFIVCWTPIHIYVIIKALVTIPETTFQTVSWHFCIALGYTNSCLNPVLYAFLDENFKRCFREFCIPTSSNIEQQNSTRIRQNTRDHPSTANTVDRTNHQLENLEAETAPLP

As for `CC(C)C[C@H](NC(=O)[C@H](C)NC(=O)[C@H](CC(N)=O)NC(=O)[C@H](Cc1ccccc1)NC(=O)[C@H](Cc1c[nH]c2ccccc12)NC(=O)[C@H](CCCCN)NC(=O)[C@H](CO[C@@H]1O[C@H](CO)[C@@H](O)[C@H](O)[C@H]1O)NC(=O)[C@H](C)NC(=O)[C@H](CC(C)C)NC(=O)[C@H](CCC(=O)O)NC(=O)CNC(=O)[C@H](CC(C)C)NC(=O)[C@H](Cc1ccccc1)NC(=O)CNC(=O)[C@H](NC(=O)[C@@H](N)Cc1ccc(O)cc1)[C@H](C)O)C(=O)N[C@@H](CCC(=O)O)C(N)=O` (relative stereo) [Glycopeptide 1, YtGFLGELAS*KWFNALE], in data set [1], the water solubility result is “H2O insoluble”. The “% α-helicity” value in data set [2] is given as 85%.
On to `CC(C)C[C@H](NC(=O)[C@H](C)NC(=O)[C@H](CC(N)=O)NC(=O)[C@H](Cc1ccccc1)NC(=O)[C@H](Cc1c[nH]c2ccccc12)NC(=O)[C@H](CCCCN)NC(=O)[C@H](CO[C@@H]1O[C@H](CO)[C@@H](O)[C@H](O)[C@H]1O)NC(=O)[C@H](C)NC(=O)[C@H](CC(C)C)NC(=O)[C@H](CCC(=O)O)NC(=O)CNC(=O)[C@H](CC(C)C)NC(=O)[C@H](Cc1ccccc1)NC(=O)CNC(=O)[C@H](NC(=O)[C@@H](N)Cc1ccc(O)cc1)[C@H](C)O)C(=O)N[C@@H](CCC(=O)O)C(=O)N[C@@H](CO[C@@H]1O[C@H](CO)[C@@H](O)[C@H](O)[C@H]1O)C(=O)N[C@@H](Cc1ccccc1)C(N)=O` (relative stereo) [Glycopeptide 3, YtGFLGELAS*KWFNALES*F], for which the water solubility entry in data set [1] is listed as “H2O insoluble”. In addition, the “% α-helicity” value in data set [2] was 65%.
For `CC(C)C[C@H](NC(=O)[C@H](C)NC(=O)[C@H](CC(N)=O)NC(=O)[C@H](Cc1ccccc1)NC(=O)[C@H](Cc1c[nH]c2ccccc12)NC(=O)[C@H](CCCCN)NC(=O)[C@H](CO[C@@H]1O[C@H](CO)[C@@H](O)[C@H](O)[C@H]1O)NC(=O)[C@H](C)NC(=O)[C@H](CC(C)C)NC(=O)[C@H](CCC(=O)O)NC(=O)CNC(=O)[C@H](CC(C)C)NC(=O)[C@H](Cc1ccccc1)NC(=O)CNC(=O)[C@H](NC(=O)[C@@H](N)Cc1ccc(O)cc1)[C@H](C)O)C(=O)N[C@@H](CCC(=O)O)C(=O)N[C@@H](CO[C@@H]1O[C@H](CO)[C@@H](O)[C@H](O)[C@H]1O)C(=O)N[C@@H](Cc1ccccc1)C(=O)N[C@@H](Cc1c[nH]c2ccccc12)C(N)=O` (relative stereo) [Glycopeptide 4, YtGFLGELAS*KWFNALES*FW], in that order: “H2O insoluble” and 82%.
`CC(C)C[C@H](NC(=O)[C@H](CO[C@@H]1O[C@H](CO)[C@@H](O)[C@H](O)[C@H]1O)NC(=O)[C@H](CCCCN)NC(=O)[C@H](CC(C)C)NC(=O)[C@H](C)NC(=O)[C@H](CCCCN)NC(=O)[C@H](CCC(=O)O)NC(=O)C(C)(C)NC(=O)[C@H](CC(C)C)NC(=O)[C@H](CC(N)=O)NC(=O)CCNC(=O)[C@H](CC(C)C)NC(=O)[C@H](Cc1ccccc1)NC(=O)CNC(=O)[C@H](NC(=O)[C@@H](N)Cc1ccc(O)cc1)[C@H](C)O)C(N)=O` (relative stereo) [Glycopeptide 10, YtGFLβANLBEKALKS*L] came in with an A50 i.c.v. in data set [3] of 0.030 nmol. Also, the “% α-helicity by NMR” value in data set [4] (solvent H2O) is given as 17%; in data set [4] (solvent SDS micelles), 55%; in data set [4] (solvent TFE), 32%. In addition, the “% α-helicity by CD” value in data set [2] (solvent Bicelle A (anionic bicelles)) is 27%; in data set [2] (solvent H2O) it was over 1%; in data set [2] (solvent SDS micelles), 29%; in data set [2] (solvent TFE), 22%. Further, the pIC50 (usually −log10 of the IC50, conventionally taken in molar units) is 6.96 in data set [5] and 6.82 in data set [7]. Besides, the BBB uptake in data set [6] is on record as 0.183 microliters per min per gram of cortex.
